Values of other authors in patent US20090317483A1, “Bicomponent Bioadhesive for Biomedical Use” (INSTITUTO OFTALMOLOGICO DE ALICANTE, S.L., priority 2004, published 2009).

Settings: in vivo

C=C(C#N)C(=O)OCCCC [butyl cyanoacrylate]
closure of corneal perforations: effective
